Experimental data as given in patent US7138361B2, “Herbicidal heterocycles” (E. I. du Pont de Nemours and Company, priority 2000, dated 2006).

Legend:
Format in all cases: in vivo
[1] = test system: barnyardgrass (Echinochloa crus-galli); assay: Test C flooded paddy test; conditions: for Barnyardgrass plant response rating: Flooded Paddy, scale 0 to 100, 0 no effect, 100 complete control; for Plant response rating, Barnyardgrass: flooded paddy test, scale 0 to 100 (0 no effect, 100 complete control)
Experimental: (§1) At the same time, plants selected from these crop and weed species and also winter barley (Hordeum vulgare), blackgrass (Alopecurus myosuroides), canary grass (Phalaris minor), chickweed (Stellaria media), downy brome (Bromus tectorum), green foxtail (Setaria viridis), Italian ryegrass (Lolium multiflorum), wheat (Triticum aestivum), wild oat (Avena fatua) and windgrass (Apera spica-venti) were treated with postemergence applications of some of the test chemicals formulated in the same manner. Plants ranged in height from 2 to 18 cm (1- to 4-leaf stage) for postemergence treatments. Plant species in the flooded paddy test consisted of rice (Oryza saliva), smallflower flatsedge (Cyperus difformis), duck salad (Heteranthera limosa) and barnyardgrass (Echinochloa crus-galli) grown to the 2-leaf stage for testing. Treated plants and controls were maintained in a greenhouse for 12 to 14 days, after which time all species were compared to controls and visually evaluated. Plant response ratings, summarized in Table C, are based on a scale of 0 to 100 where 0 is no effect and 100 is complete control. A dash (-) response means no test result.

[2] = test system: rice (Oryza saliva); assay: Test C flooded paddy test; conditions: for Rice plant response rating: Flooded Paddy, scale 0 to 100, 0 no effect, 100 complete control; for Plant response rating, Rice: flooded paddy test, scale 0 to 100 (0 no effect, 100 complete control)
Experimental: as §1

[3] = test system: duck salad (Heteranthera limosa); assay: Test C flooded paddy test; conditions: for Ducksalad plant response rating: Flooded Paddy, scale 0 to 100, 0 no effect, 100 complete control; for Plant response rating, Ducksalad: flooded paddy test, scale 0 to 100 (0 no effect, 100 complete control)
Experimental: as §1

[4] = test system: smallflower flatsedge (Cyperus difformis); assay: Test C flooded paddy test; conditions: for Flatsedge plant response rating: Flooded Paddy, scale 0 to 100, 0 no effect, 100 complete control; for Plant response rating, Flatsedge: flooded paddy test, scale 0 to 100 (0 no effect, 100 complete control)
Experimental: as §1

[5] = test system: velvetleaf (Abutilon theophrasti); assay: Test B preemergence
Source text: (§2) Seeds selected from barnyardgrass (Echinochloa crus-galli), Surinam grass (Brachiaria decumbens), cocklebur (Xanthium strumarium), corn (Zea mays), crabgrass (Digitaria sanguinalis), giant foxtail (Setaria faberii), lambsquarters (Chenopodium album), morning glory (Ipomoea hederacea), pigweed (Amaranthus retroflexus), rice (Oryza saliva) and velvetleaf (Abutilon theophrasti) were planted and treated preemergence with test chemicals formulated in a non-phytotoxic solvent mixture which included a surfactant.
(§3) At the same time, plants selected from these crop and weed species and also blackgrass (Alopecurus myosuroides), wheat (Triticum aestivum) and wild oat (Avena fatua) were treated with postemergence applications of test chemicals formulated in the same manner. Plants ranged in height from 2 to 18 cm (1- to 4-leaf stage) for postemergence treatments. Plant species in the flooded paddy test consisted of rice (Oryza saliva), smallflower flatsedge (Cyperus difformis), duck salad (Heteranthera limosa) and barnyardgrass (Echinochloa crus-galli) grown to the 2-leaf stage for testing. Treated plants and controls were maintained in a greenhouse for 13 to 15 days, after which time all species were compared to controls and visually evaluated. Plant response ratings, summarized in Table B, are based on a scale of 0 to 100 where 0 is no effect and 100 is complete control. A dash (-) response means no test result.

[6] = test system: cocklebur (Xanthium strumarium); assay: Test B preemergence
Source text: as §2, §3

[7] = test system: barnyardgrass (Echinochloa crus-galli); assay: Test B preemergence
Source text: as §2, §3

[8] = test system: morning glory (Ipomoea hederacea); assay: Test B preemergence
Source text: as §2, §3

[9] = test system: lambsquarters (Chenopodium album); assay: Test B preemergence
Source text: as §2, §3

[10] = test system: Surinam grass (Brachiaria decumbens); assay: Test B preemergence
Source text: as §2, §3

[11] = test system: pigweed (Amaranthus retroflexus); assay: Test B preemergence
Source text: as §2, §3

[12] = test system: corn (Zea mays); assay: Test B preemergence
Source text: as §2, §3

[13] = test system: rice (Oryza saliva); assay: Test B preemergence
Source text: as §2, §3

[14] = test system: giant foxtail (Setaria faberii); assay: Test B preemergence
Source text: as §2, §3

[15] = test system: crabgrass (Digitaria sanguinalis); assay: Test B preemergence
Source text: as §2, §3

[16] = test system: wild oat (Avena fatua); assay: Test B postemergence; conditions: Rate 500 g/ha, scale 0 to 100, 0 is no effect, 100 is complete control, 13 to 15 days
Source text: as §2, §3

[17] = test system: velvetleaf (Abutilon theophrasti); assay: Test B postemergence; conditions: Rate 500 g/ha, scale 0 to 100, 0 is no effect, 100 is complete control, 13 to 15 days
Source text: as §2, §3

[18] = test system: barnyardgrass (Echinochloa crus-galli); assay: Test B postemergence; conditions: 13 to 15 days
Source text: as §2, §3

[19] = test system: morning glory (Ipomoea hederacea); assay: Test B postemergence; conditions: Rate 500 g/ha, scale 0 to 100, 0 is no effect, 100 is complete control, 13 to 15 days
Source text: as §2, §3

[20] = test system: lambsquarters (Chenopodium album); assay: Test B postemergence; conditions: Rate 500 g/ha, scale 0 to 100, 0 is no effect, 100 is complete control, 13 to 15 days
Source text: as §2, §3

[21] = test system: Surinam grass (Brachiaria decumbens); assay: Test B postemergence; conditions: 13 to 15 days
Source text: as §2, §3

[22] = test system: pigweed (Amaranthus retroflexus); assay: Test B postemergence; conditions: Rate 500 g/ha, scale 0 to 100, 0 is no effect, 100 is complete control, 13 to 15 days
Source text: as §2, §3

[23] = test system: corn (Zea mays); assay: Test B postemergence; conditions: 13 to 15 days
Source text: as §2, §3

[24] = test system: blackgrass (Alopecurus myosuroides); assay: Test B postemergence; conditions: 13 to 15 days
Source text: as §2, §3

[25] = test system: wheat (Triticum aestivum); assay: Test B postemergence; conditions: Rate 500 g/ha, scale 0 to 100, 0 is no effect, 100 is complete control, 13 to 15 days
Source text: as §2, §3

[26] = test system: giant foxtail (Setaria faberii); assay: Test B postemergence; conditions: 13 to 15 days
Source text: as §2, §3

[27] = test system: crabgrass (Digitaria sanguinalis); assay: Test B postemergence; conditions: 13 to 15 days
Source text: as §2, §3

[28] = Preemergence, Rate 500 g/ha, scale 0 to 100, 0 no effect, 100 complete control
[29] = preemergence, Rate 125 g/ha, scale of 0 to 100 where 0 is no effect and 100 is complete control, 13 to 15 days
[30] = Rate 125 g/ha, scale 0 (no effect) to 100 (complete control)
[31] = Rate 500 g/ha, scale 0 to 100, 0 is no effect, 100 is complete control

## CC(C)(C)c1ccn(C2CCN(c3cccc(C#N)c3)C2=O)n1 (stereo not shown) [Compound 104]
[1]; Rate 250 g/ha
  Barnyardgrass plant response rating: 0
[1]; Rate 500 g/ha
  Barnyardgrass plant response rating: 0
[1]; Rate 62 g/ha
  Plant response rating, Barnyardgrass: 0
[1]; Rate 125 g/ha
  Plant response rating, Barnyardgrass: 0
[2]; Rate 250 g/ha
  Rice plant response rating: 0
[2]; Rate 500 g/ha
  Rice plant response rating: 0
[2]; Rate 62 g/ha
  Plant response rating, Rice: 0
[2]; Rate 125 g/ha
  Plant response rating, Rice: 0
[3]; Rate 250 g/ha
  Ducksalad plant response rating: 0
[3]; Rate 500 g/ha
  Ducksalad plant response rating: 0
[3]; Rate 62 g/ha
  Plant response rating, Ducksalad: 0
[3]; Rate 125 g/ha
  Plant response rating, Ducksalad: 0
[4]; Rate 250 g/ha
  Flatsedge plant response rating: 0
[4]; Rate 500 g/ha
  Flatsedge plant response rating: 0
[4]; Rate 62 g/ha
  Plant response rating, Flatsedge: 0
[4]; Rate 125 g/ha
  Plant response rating, Flatsedge: 0
[5]; [28]
  Plant response rating, Velvetleaf: 0
[5]; [29]
  Plant response rating, Velvetleaf: 0
[6]; [28]
  Plant response rating, Cocklebur: 0
[6]; [29]
  Plant response rating, Cocklebur: 0
[7]; [28]
  Plant response rating, Barnyardgrass: 0
[7]; [29]
  Plant response rating, Barnyardgrass: 0
[8]; [28]
  Plant response rating, Morningglory: 0
[8]; [29]
  Plant response rating, Morningglory: 0
[9]; [28]
  Plant response rating, Lambsquarters: 100
[9]; [29]
  Plant response rating, Lambsquarters: 100
[10]; [28]
  Plant response rating, Surinam grass: 0
[10]; [29]
  Plant response rating, Surinam grass: 0
[11]; [28]
  Plant response rating, Pigweed: 100
[11]; [29]
  Plant response rating, Pigweed: 70
[12]; [28]
  Plant response rating, Corn: 0
[12]; [29]
  Plant response rating, Corn: 0
[13]; [28]
  Plant response rating, Rice: 0
[13]; [29]
  Plant response rating, Rice: 0
[14]; [28]
  Plant response rating, Foxtail, Giant: 0
[14]; [29]
  Plant response rating, Foxtail, Giant: 0
[15]; [28]
  Plant response rating, Crabgrass: 0
[15]; [29]
  Plant response rating, Crabgrass: 0
[16]
  Plant response rating, Wild Oat: 0
[17]
  Plant response rating, Velvetleaf: 0
[18]; [30]
  Plant response rating, Barnyardgrass: 0
[18]; [31]
  Plant response rating, Barnyardgrass: 0
[19]
  Plant response rating, Morningglory: 0
[20]
  Plant response rating, Lambsquarters: 0
[21]; [30]
  Plant response rating, Surinam grass: 0
[21]; [31]
  Plant response rating, Surinam grass: 0
[22]
  Plant response rating, Pigweed: 0
[23]; [30]
  Plant response rating, Corn: 0
[23]; [31]
  Plant response rating, Corn: 0
[24]; [30]
  Plant response rating, Blackgrass: 0
[24]; [31]
  Plant response rating, Blackgrass: 0
[25]
  Plant response rating, Wheat: 0
[26]; [30]
  Plant response rating, Foxtail, Giant: 0
[26]; [31]
  Plant response rating, Foxtail, Giant: 0
[27]; [30]
  Plant response rating, Crabgrass: 0
[27]; [31]
  Plant response rating, Crabgrass: 0

## CC(C)(C)c1ccn(C2CCN(c3ccc4c(c3)CCC4)C2=O)n1 (stereo not shown) [Compound 105]
[1]; Rate 250 g/ha
  Barnyardgrass plant response rating: 20
[1]; Rate 500 g/ha
  Barnyardgrass plant response rating: 60
[1]; Rate 62 g/ha
  Plant response rating, Barnyardgrass: 0
[1]; Rate 125 g/ha
  Plant response rating, Barnyardgrass: 0
[2]; Rate 250 g/ha
  Rice plant response rating: 20
[2]; Rate 500 g/ha
  Rice plant response rating: 30
[2]; Rate 62 g/ha
  Plant response rating, Rice: 0
[2]; Rate 125 g/ha
  Plant response rating, Rice: 0
[3]; Rate 250 g/ha
  Ducksalad plant response rating: 0
[3]; Rate 500 g/ha
  Ducksalad plant response rating: 0
[3]; Rate 62 g/ha
  Plant response rating, Ducksalad: 0
[3]; Rate 125 g/ha
  Plant response rating, Ducksalad: 0
[4]; Rate 250 g/ha
  Flatsedge plant response rating: 90
[4]; Rate 500 g/ha
  Flatsedge plant response rating: 90
[4]; Rate 62 g/ha
  Plant response rating, Flatsedge: 40
[4]; Rate 125 g/ha
  Plant response rating, Flatsedge: 90
[5]; [28]
  Plant response rating, Velvetleaf: 0
[5]; [29]
  Plant response rating, Velvetleaf: 0
[6]; [28]
  Plant response rating, Cocklebur: 0
[6]; [29]
  Plant response rating, Cocklebur: 0
[7]; [28]
  Plant response rating, Barnyardgrass: 0
[7]; [29]
  Plant response rating, Barnyardgrass: 0
[8]; [28]
  Plant response rating, Morningglory: 0
[8]; [29]
  Plant response rating, Morningglory: 0
[9]; [28]
  Plant response rating, Lambsquarters: 100
[9]; [29]
  Plant response rating, Lambsquarters: 60
[10]; [28]
  Plant response rating, Surinam grass: 0
[10]; [29]
  Plant response rating, Surinam grass: 0
[11]; [28]
  Plant response rating, Pigweed: 100
[11]; [29]
  Plant response rating, Pigweed: 0
[12]; [28]
  Plant response rating, Corn: 0
[12]; [29]
  Plant response rating, Corn: 0
[13]; [28]
  Plant response rating, Rice: 0
[13]; [29]
  Plant response rating, Rice: 0
[14]; [28]
  Plant response rating, Foxtail, Giant: 20
[14]; [29]
  Plant response rating, Foxtail, Giant: 0
[15]; [28]
  Plant response rating, Crabgrass: 30
[15]; [29]
  Plant response rating, Crabgrass: 0
[16]
  Plant response rating, Wild Oat: 0
[17]
  Plant response rating, Velvetleaf: 0
[18]; [30]
  Plant response rating, Barnyardgrass: 0
[18]; [31]
  Plant response rating, Barnyardgrass: 0
[19]
  Plant response rating, Morningglory: 0
[20]
  Plant response rating, Lambsquarters: 0
[21]; [30]
  Plant response rating, Surinam grass: 0
[21]; [31]
  Plant response rating, Surinam grass: 0
[22]
  Plant response rating, Pigweed: 0
[23]; [30]
  Plant response rating, Corn: 0
[23]; [31]
  Plant response rating, Corn: 0
[24]; [30]
  Plant response rating, Blackgrass: 0
[24]; [31]
  Plant response rating, Blackgrass: 0
[25]
  Plant response rating, Wheat: 0
[26]; [30]
  Plant response rating, Foxtail, Giant: 0
[26]; [31]
  Plant response rating, Foxtail, Giant: 0
[27]; [30]
  Plant response rating, Crabgrass: 0
[27]; [31]
  Plant response rating, Crabgrass: 0
